Laboratory results from patent EP1121940A1, “Pharmaceutical compositions comprising an antibiotic and bromhexine, and process for their preparation” (New Pharma Research Sweden AB, priority 2000, dated 2001).

How the values were obtained:
[1] = solutions of pH greater than six; cited from earlier work
[2] = tested on: Escherichia coli; test: Efficacy in the treatment of Escherichia coli infected chickens; assay type: in vivo, broiler chickens; details: oral via drinking water, three consecutive days, recorded over ten days following treatment
From the text: (§1) The aim of this study was to evaluate the effect of a treatment with a composition in accordance with the present invention on the mortality and clinical signs of chickens naturally infected by Escherichia coli, and to compare the efficacy of this treatment with the efficacy of a treatment with a composition containing only the antibiotic.
10 000 broiler chickens aged 1 day were used for the experiment. The birds were infected by natural infection by Escherichia coli.
(§2) The birds were then divided into 2 equal groups of 5 000 birds each. The first group was treated with a composition containing only enrofloxacin. The second group was treated with the composition of Example 1 of the present invention, containing both enrofloxacin and bromhexine-HCl. Thus, 1 ml of composition contained either 200 mg of enrofloxacin (composition for the treatment of the first group) or 200 mg of enrofloxacin and 10 mg of bromhexine-HCl (composition for the treatment of the second group).
For both groups, the treatment was made orally, for three consecutive days, and using the drinking water, at a dose of 1 ml of active composition per 4 litres of drinking water.
To assess the efficacy of the treatment, the mortality and body weight of the animals were recorded for each group over a period of ten days following the treatment.

[3] = tested on: pneumonia infection; test: Efficacy in the treatment of calves suffering from a pneumonia infection; assay type: in vivo; details: intramuscular injection once a day for four consecutive days, results after 5 days
From the text: as §1, with “calves suffering from a pneumonia infection,” for “chickens naturally infected by Escherichia coli,”
20 calves aged 1 to 4 months were used for the experiment. The animals were suffering from a pneumonia infection, characterized by severe respiratory disorders including coughing, rale and increased body temperature (measured between +39.5°C and +41°C).
as §2, with “calves” for “birds”, “were” for “were then”, “10 animals” for “5 000 birds”, “invention, i.e.” for “invention,”
For both groups, the treatment was made by intramuscular injection, once a day and for four consecutive days, at a dose of 1 ml of active composition per 80 kg of animal body weight.
To assess the efficacy of the treatment, the mortality and body temperature of the animals were recorded for each group over a period of ten days following the treatment.

SMILES | precipitation in solutions [1] | Mortality % ([2]; 1 ml composition per 4 litres) [%] | Mortality dead birds ([2]; 1 ml composition per 4 litres, 5000 birds per group) | Weight g/bird [2] [g/bird] | Mortality % ([3]; 1 ml per 80 kg body weight) [%] | Mortality dead animals ([3]; 1 ml per 80 kg body weight, 10 calves per group) | Body temperature [3]
CN(Cc1cc(Br)cc(Br)c1N)C1CCCCC1.Cl [Bromhexine-HCl, N-(2-amino-3,5-dibromobenzyl)-N-methyl-cyclohexylamine hydrochloride] | precipitate |  |  |  |  |  | 
CCN1CCN(c2cc3c(cc2F)c(=O)c(C(=O)O)cn3C2CC2)CC1 [Enrofloxacine, 1-cyclopropyl-7-(4-ethyl-1-piperazinyl)-6-fluoro-1,4-dihydro-4-oxo-3-quinoline carboxylic acid] |  | 2.23 | 113/5000 | 1810 | 10 | 1/10 | over 41.5 °C
